Patent publication US12473584B2, “Method for detecting the presence, identification and quantification in a blood sample of anticoagulants which are blood coagulation enzymes inhibitors, and means for the implementation thereof” (DIAGNOSTICA STAGO, priority 2018, dated 2025)

Target: T1, bovine factor Xa (Bos taurus, UniProt P00743)
T1 construct: (bovine factor Xa); purchased Stago (Diagnostica Stago) STA®—Liquid Anti-Xa commercial kit (catalogue number not given)
Assay: competitive enzymatic assay, enzyme-substrate reaction (universal methodology, STA-Liquid Anti-Xa kit)
Type: biochemical
Settings: bovine factor Xa [E]≈10 nM, substrate [S]≈482 μM, 37° C.
Description: In accordance with this particular embodiment, the in vitro measurement for the detection, the identification, and the quantification of synthetic inhibitors of factor Xa was carried out in accordance with the following principle: • 25 μL of a plasma sample suspected of containing a heparin or an anti-Xa DOAC was diluted in 25 μL of Owren Koller buffer (TOK), then placed in a consumable; • 150 μL of “Substrate” reagent (MAPA-Gly-Arg-pNA) (reagent in the STA®—Liquid Anti-Xa commercial kit) specific for factor Xa was added to the reaction mixture; • an incubation step of 240 seconds raised the reaction mixture to 37° C.; • 150 μL of the reagent “F. Xa” (bovine factor Xa) (reagent in the STA®—Liquid Anti-Xa commercial kit) was added to the reaction mixture, thereby initiating competition between the inhibition reaction and the enzymatic reaction; • the measurement per se was then carried out over 156 seconds: factor Xa transforms the substrate into product while at the same time being inhibited by the heparin or the DOAC if they are present in the sample. […]

T1 sequence (P00743 234-492 limits assumed): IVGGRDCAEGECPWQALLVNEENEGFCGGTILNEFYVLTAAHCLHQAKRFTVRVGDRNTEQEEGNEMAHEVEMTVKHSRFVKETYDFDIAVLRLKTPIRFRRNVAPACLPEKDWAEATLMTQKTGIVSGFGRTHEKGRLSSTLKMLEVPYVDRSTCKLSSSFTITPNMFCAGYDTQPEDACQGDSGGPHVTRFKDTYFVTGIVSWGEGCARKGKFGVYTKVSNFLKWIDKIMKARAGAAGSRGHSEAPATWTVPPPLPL
T1 sequence (P00743 41-180 limits assumed): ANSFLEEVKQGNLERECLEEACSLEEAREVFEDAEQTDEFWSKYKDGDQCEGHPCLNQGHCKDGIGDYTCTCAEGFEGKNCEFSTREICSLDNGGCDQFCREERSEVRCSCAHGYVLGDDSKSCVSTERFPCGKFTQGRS

Michaelis constant KM associated with the enzyme-substrate reaction: ~500 µM
catalytic constant kcat associated with the enzyme-substrate reaction: approximately 400 s-1
Substance: MAPA-Gly-Arg-pNA
